Patent US20250304612A1, “THERAPEUTIC AGENT FOR BLOOD CANCER” (Aptabio Therapeutics Inc., priority 2017, published 2025)

Assays:
Test in all cases: MTT cytotoxicity assay, drug-resistant blood cancer cells
Format in all cases: cell-based
[1] = system: Decitabine-resistant MOLM13; conditions: Homo sapiens, MOLM-13, 120 h, 5 days, read-out: IC50, cytotoxic effects on drug-resistant blood cancer cells
Description: (§1) Each oligonucleotide-modified nucleic acid was diluted in a 10 mM Tris-HCl (pH 7.4) solution to a final concentration of 100 μM. The diluted solution was allowed to stand at 94° C. for 5 minutes and then the tube was allowed to stand on ice. The resulting solution was added with a 2M KCl solution such that a final concentration of the KCl solution became 50 mM, allowed to stand at 60° C. for 3 hours and was slowly cooled to room temperature. Each oligonucleotide was diluted in a 10 mM Tris-HCl (pH 7.4) solution to a concentration of 10 μM, and was allowed to stand at 94° C. for 5 minutes, and the tube was allowed to stand on ice. The resulting solution was added with a 2M KCl solution such that the final concentration of the KCl solution became 50 mM, and allowed to stand at 60° C. for 3 hours and then slowly cooled to room temperature, which was then used for the present Example.
(§2) On the day before the experiment, 190 μl of a culture medium (at a concentration of 10^4 to 10^5 cells/ml) containing blood cancer cells such as HL60, MV-4-11, CCRF-CEM, MOLT-4 and MOLM-13 cell lines, and drug-resistant blood cancer cells such as azacitidine (AZA-1)-resistant MOLM13, decitabine (Dec-5)-resistant MOLM13 and cytarabine (AraC-1)-resistant MOLM13 cell lines, and normal cells such as WI38, CCD-18co and Fa2N4 cells were seeded on a 96-well plate. The next day, 10 μl of the oligonucleotide-modified nucleic acid solution prepared in Example 2 was added and then cultured for 5 days.
(§3) Five days after drug treatment, MTT assay was performed to measure cytotoxicity of the cell lines [see JBC 1999, 26369].

[2] = system: Cytarabine-resistant MOLM13; conditions: Homo sapiens, MOLM-13, 120 h, 5 days, read-out: IC50, cytotoxic effects on drug-resistant blood cancer cells
Description: as §1, §2, §3

[3] = system: Azacitidine-resistant MOLM13; conditions: Homo sapiens, MOLM-13, 120 h, 5 days, read-out: IC50, cytotoxic effects on drug-resistant blood cancer cells
Description: as §1, §2, §3

[4] = system: Cytarabine-resistant MV-4-11; conditions: Homo sapiens, MV4-11, 120 h; Cytarabine-resistant MV-4-11, MTT, 5 days; read-out: IC50, cytotoxic effects on drug-resistant blood cancer cells
[5] = system: Cytarabine-resistant HL-60; conditions: Homo sapiens, 120 h; Cytarabine-resistant HL-60, MTT, 5 days; read-out: IC50, cytotoxic effects on drug-resistant blood cancer cells

## Nc1ccn([C@@H]2O[C@H](CO)[C@@H](O)[C@@H]2O)c(=O)n1 [Cytarabine, cytarabine]
[1]
  IC50: 3.49 µM
[2]
  IC50: > 10 µM
[3]
  IC50: 3.5 µM
[4]
  IC50: > 20 µM
[5]
  IC50: > 30 µM
